From ChEMBL document CHEMBL3885861, “Open TG-GATES”

Organism: Rattus norvegicus
Experiment: Open TG-GATES - Regimen: Daily Repeat
Assay type: toxicity, organism-based, Sprague-Dawley
Parameters: regimen Daily Repeat, gender Male, age 6 weeks
Conditions: in vivo, po, 30 mg/kg, route gavage, dose level Low; for APTT / Bas / Eos / Fbg / Hb / Ht / Lym / MCH / MCHC / MCV / Mono / Neu / PT / Plat / RBC / Ret / WBC: tissue Blood; for KIDNEY_L / KIDNEY_R / KIDNEY_TOTAL: tissue Kidney; for LIVER: tissue Liver; for A/G / ALP / ALT / AST / BUN / CRE / Ca / Cl / DBIL / GLC / IP / K / LDH / Na / PL / RALB / TBIL / TC / TG / TP / gamma-GTP: tissue Plasma

Compound `Clc1c(Cl)c(Cl)c(Cl)c(Cl)c1Cl` [PERCHLOROBENZENE] has a TERMINAL_BW (72 h, time 3 day) of 223.9 g, an APTT (72 h, time 3 day) of 16.2 s and a Bas (72 h, time 3 day) of 0%. The Eos (72 h, time 3 day) was 1.2%, the Fbg (72 h, time 3 day) was 215.4 mg/dL and the Hb (72 h, time 3 day) was 13.9 g/dL. The Ht (72 h, time 3 day) was 41.8%, the Lym (72 h, time 3 day) was 72.2% and the MCH (72 h, time 3 day) was 21.8 pg. For the same compound, the MCHC (72 h, time 3 day) was 33.3%, the MCV (72 h, time 3 day) was 65.6 fL and the Mono (72 h, time 3 day) was 6.8%. It also gave a Neu (72 h, time 3 day) of 19.6%, a PT (72 h, time 3 day) of 11.5 s and a Plat (72 h, time 3 day) of 98.9 x10_4/uL. The RBC (72 h, time 3 day) was 637.6 x10_4/ul, the Ret (72 h, time 3 day) was 7.6% and the WBC (72 h, time 3 day) was 102.3 x10_2/uL. It also gave a KIDNEY_L (72 h, time 3 day) of 1.1 g, a KIDNEY_R (72 h, time 3 day) of 1.1 g and a KIDNEY_TOTAL (72 h, time 3 day) of 2.2 g. For the same compound, the LIVER (72 h, time 3 day) was 12.4 g, the A/G (72 h, time 3 day) was 2.2 and the ALP (72 h, time 3 day) was 816 IU/L. For the same compound, the ALT (72 h, time 3 day) was 41.6 IU/L, the AST (72 h, time 3 day) was 67 IU/L and the BUN (72 h, time 3 day) was 14.6 mg/dL. The CRE (72 h, time 3 day) was 0.5 mg/dL, the Ca (72 h, time 3 day) was 10.5 mg/dL and the Cl (72 h, time 3 day) was 105.6 meq/L. The DBIL (72 h, time 3 day) was 0.028 mg/dL, the GLC (72 h, time 3 day) was 194.4 mg/dL and the IP (72 h, time 3 day) was 8.3 mg/dL. It also gave a K (72 h, time 3 day) of 5.1 meq/L, an LDH (72 h, time 3 day) of 104 IU/L and a Na (72 h, time 3 day) of 139.6 meq/L. The PL (72 h, time 3 day) was 143.8 mg/dL, the RALB (72 h, time 3 day) was 3.9 g/dL and the TBIL (72 h, time 3 day) was 0.4 mg/dL. For the same compound, the TC (72 h, time 3 day) was 82 mg/dL, the TG (72 h, time 3 day) was 79.8 mg/dL and the TP (72 h, time 3 day) was 5.7 g/dL. The gamma-GTP (72 h, time 3 day) was 1.4 IU/L, the TERMINAL_BW ([…], time 7 day) was 255.4 g and the TERMINAL_BW ([…], time 14 day) was 320.4 g. The TERMINAL_BW ([…], time 28 day) was 413.2 g, the APTT ([…], time 7 day) was 16.5 s and the Bas ([…], time 7 day) was 0%. For the same compound, the Eos ([…], time 7 day) was 1.4%, the Fbg ([…], time 7 day) was 225 mg/dL and the Hb ([…], time 7 day) was 14 g/dL. It also gave a Ht ([…], time 7 day) of 42%, a Lym ([…], time 7 day) of 79.6% and an MCH ([…], time 7 day) of 21.1 pg. The MCHC ([…], time 7 day) was 33.4%, the MCV ([…], time 7 day) was 63.3 fL and the Mono ([…], time 7 day) was 5.2%. The Neu ([…], time 7 day) was 14.2%, the PT ([…], time 7 day) was 11.6 s and the Plat ([…], time 7 day) was 116.4 x10_4/uL. It also gave an RBC ([…], time 7 day) of 663.6 x10_4/ul, a Ret ([…], time 7 day) of 5.4% and a WBC ([…], time 7 day) of 97.6 x10_2/uL. It also gave an APTT ([…], time 14 day) of 17.7 s, a Bas ([…], time 14 day) of 0% and an Eos ([…], time 14 day) of 1.6%. The Fbg ([…], time 14 day) was 225.8 mg/dL, the Hb ([…], time 14 day) was 14.4 g/dL and the Ht ([…], time 14 day) was 43%. The Lym ([…], time 14 day) was 66.8%, the MCH ([…], time 14 day) was 20.5 pg and the MCHC ([…], time 14 day) was 33.5%. The MCV ([…], time 14 day) was 61.3 fL, the Mono ([…], time 14 day) was 12% and the Neu ([…], time 14 day) was 19.6%. The PT ([…], time 14 day) was 11.9 s, the Plat ([…], time 14 day) was 119 x10_4/uL and the RBC ([…], time 14 day) was 702.6 x10_4/ul. The Ret ([…], time 14 day) was 4.3%, the WBC ([…], time 14 day) was 113.1 x10_2/uL and the APTT ([…], time 28 day) was 21.6 s. It also gave a Bas ([…], time 28 day) of 0%, an Eos ([…], time 28 day) of 1.8% and a Fbg ([…], time 28 day) of 258.6 mg/dL. For the same compound, the Hb ([…], time 28 day) was 15 g/dL, the Ht ([…], time 28 day) was 44.8% and the Lym ([…], time 28 day) was 69.8%. For the same compound, the MCH ([…], time 28 day) was 20.4 pg, the MCHC ([…], time 28 day) was 33.4% and the MCV ([…], time 28 day) was 61 fL. The Mono ([…], time 28 day) was 12%, the Neu ([…], time 28 day) was 16.2% and the PT ([…], time 28 day) was 13.2 s. For the same compound, the Plat ([…], time 28 day) was 102.4 x10_4/uL, the RBC ([…], time 28 day) was 735 x10_4/ul and the Ret ([…], time 28 day) was 3%. For the same compound, the WBC ([…], time 28 day) was 113.2 x10_2/uL, the KIDNEY_L ([…], time 7 day) was 1.2 g and the KIDNEY_R ([…], time 7 day) was 1.2 g. The KIDNEY_TOTAL ([…], time 7 day) was 2.4 g, the KIDNEY_L ([…], time 14 day) was 1.3 g and the KIDNEY_R ([…], time 14 day) was 1.4 g. It also gave a KIDNEY_TOTAL ([…], time 14 day) of 2.7 g, a KIDNEY_L ([…], time 28 day) of 1.7 g and a KIDNEY_R ([…], time 28 day) of 1.7 g. The KIDNEY_TOTAL ([…], time 28 day) was 3.4 g, the LIVER ([…], time 7 day) was 14.7 g and the LIVER ([…], time 14 day) was 20.2 g. For the same compound, the LIVER ([…], time 28 day) was 27.3 g, the A/G ([…], time 7 day) was 2.1 and the ALP ([…], time 7 day) was 719.8 IU/L. The ALT ([…], time 7 day) was 33.2 IU/L, the AST ([…], time 7 day) was 55.8 IU/L and the BUN ([…], time 7 day) was 15.8 mg/dL. For the same compound, the CRE ([…], time 7 day) was 0.6 mg/dL, the Ca ([…], time 7 day) was 10.4 mg/dL and the Cl ([…], time 7 day) was 104.8 meq/L. It also gave a DBIL ([…], time 7 day) of 0.002 mg/dL, a GLC ([…], time 7 day) of 190.6 mg/dL and an IP ([…], time 7 day) of 7.9 mg/dL. It also gave a K ([…], time 7 day) of 5 meq/L, an LDH ([…], time 7 day) of 93.6 IU/L and a Na ([…], time 7 day) of 137.6 meq/L. The PL ([…], time 7 day) was 166.4 mg/dL, the RALB ([…], time 7 day) was 4 g/dL and the TBIL ([…], time 7 day) was 0.5 mg/dL. For the same compound, the TC ([…], time 7 day) was 89.4 mg/dL, the TG ([…], time 7 day) was 129.8 mg/dL and the TP ([…], time 7 day) was 5.9 g/dL. For the same compound, the gamma-GTP ([…], time 7 day) was 1.2 IU/L, the A/G ([…], time 14 day) was 1.8 and the ALP ([…], time 14 day) was 589.2 IU/L. For the same compound, the ALT ([…], time 14 day) was 35.4 IU/L, the AST ([…], time 14 day) was 61.8 IU/L and the BUN ([…], time 14 day) was 17.6 mg/dL. It also gave a CRE ([…], time 14 day) of 0.6 mg/dL, a Ca ([…], time 14 day) of 10.4 mg/dL and a Cl ([…], time 14 day) of 105.4 meq/L. For the same compound, the DBIL ([…], time 14 day) was 0.004 mg/dL, the GLC ([…], time 14 day) was 173.2 mg/dL and the IP ([…], time 14 day) was 7.1 mg/dL. It also gave a K ([…], time 14 day) of 4.9 meq/L, an LDH ([…], time 14 day) of 84.6 IU/L and a Na ([…], time 14 day) of 139.6 meq/L. It also gave a PL ([…], time 14 day) of 201 mg/dL, an RALB ([…], time 14 day) of 4 g/dL and a TBIL ([…], time 14 day) of 0.4 mg/dL. For the same compound, the TC ([…], time 14 day) was 120.6 mg/dL, the TG ([…], time 14 day) was 119.6 mg/dL and the TP ([…], time 14 day) was 6.2 g/dL. The gamma-GTP ([…], time 14 day) was 2 IU/L, the A/G ([…], time 28 day) was 1.6 and the ALP ([…], time 28 day) was 345.6 IU/L. For the same compound, the ALT ([…], time 28 day) was 35.6 IU/L, the AST ([…], time 28 day) was 55.2 IU/L and the BUN ([…], time 28 day) was 18.6 mg/dL. It also gave a CRE ([…], time 28 day) of 0.7 mg/dL, a Ca ([…], time 28 day) of 10.8 mg/dL and a Cl ([…], time 28 day) of 105 meq/L. The DBIL ([…], time 28 day) was 0.004 mg/dL, the GLC ([…], time 28 day) was 160.4 mg/dL and the IP ([…], time 28 day) was 7 mg/dL. The K ([…], time 28 day) was 4.7 meq/L, the LDH ([…], time 28 day) was 75 IU/L and the Na ([…], time 28 day) was 141.2 meq/L. For the same compound, the PL ([…], time 28 day) was 190.6 mg/dL, the RALB ([…], time 28 day) was 4.4 g/dL and the TBIL ([…], time 28 day) was 0.4 mg/dL. For the same compound, the TC ([…], time 28 day) was 118 mg/dL, the TG ([…], time 28 day) was 127.4 mg/dL and the TP ([…], time 28 day) was 7.2 g/dL. The gamma-GTP ([…], time 28 day) was 3.2 IU/L.
